Experimental data from PubChem BioAssay AID2060490 (Molecular Pharmacology Branch, DTP, NCI, 2025).
Values joined by “and” are separate entries in the source; they are usually repeats but may differ in a detail not shown here. Identical values can stand only once.

System: 885512-296-R-J2-PDC complex spheroid viability
Assay: Anticancer human tumor 885512-296-R-J2-PDC patient-derived breast carcinoma cell line growth inhibition [GQUAD]
Conditions: for viability, T/C: stronger effect = lower value
From the text: DNA G-quadruplex Stabilizer Agents in Combinations in Complex Spheroids
A high-throughput screen of multi-cell type tumor spheroids was designed to identify active combinations of DNA G-quadruplex stabilizer agents and targeted small molecules. Complex spheroids include a stromal component modeled by human endothelial cells (HUVEC) and fibroblasts modeled by human mesenchymal stem cells (MSCs). The concentration ranges selected for each drug and investigational agent were based upon clinically achievable concentrations if the clinical Cmax of the agent was known.
Compounds. The drugs and investigational agents: pidnarulex (CX-5461; NSC782164), APTO-253 (NSC789042), BRACO-19 (NSC847499), peposertib (NSC802822), ceralasertib (NSC780249), elimusertib (NSC800525), camonsertib (NSC841442), AZD-1390 (NSC803789), olaparib (NSC753686), talazoparib (NSC767125), ART-558 (NSC835418), sotorasib (NSC818433), MRTX-1133 (NSC836407), SN-38 (NSC673596), topotecan (NSC609699), etoposide (NSC141540), doxorubicin (NSC123127), gemcitabine (NSC613327), 5-fluorouracil (NSC19893), paclitaxel (NSC125973), vemurafenib (NSC761431), panobinostat (NSC761190), R-306465 (JNJ-16241199; NSC773264), adavosertib (NSC754352), TP-3654 (NSC805149), carboplatin (NSC241240), KSQ-4279 (NSC840948), and staurosporine (NSC755774) were obtained from the National Cancer Institute (NCI) Developmental Therapeutics Program Chemical Repository (34). The FDA-approved anticancer drug set is available from the NCI Developmental Therapeutics Program. […] The stock solutions were prepared in dimethyl sulfoxide (DMSO, Sigma-Aldrich, St. Louis, MO, cat. D2650) at 800-fold the tested concentration and stored at -70 degrees C prior to their use. All drugs and investigational agents were tested over a range starting from a high concentration at or near the clinical Cmax and decreasing in half-log increments. If the clinical Cmax for an agent had not been determined, the highest concentration tested was 10 microM.
2.3 Cell Culture. All cells were maintained in an incubator at 37 degrees C and 5% CO2 with 95% humidity. The PDC lines were cultured according to standard operating procedures established by the NCI PDMR. All PDCs were thawed and cultured in Matrigel-coated flasks prepared with a working solution of 1X Ham's F-12 nutrient mix, without supplementation (Invitrogen, cat. 11765054), 100 U/mL penicillin-streptomycin (Invitrogen, cat. 15140122), and 2.5% Matrigel (Corning Inc., cat. 354248) for the first three passages. The 857933-349-R-J2-PDC line was cultured in 6C/Colon 1B media, which includes advanced DMEM/F-12 (Thermo Fisher Scientific, cat. 12634028), 10 mM HEPES (Thermo Fisher Scientific, cat. 15630080), 1X GlutaMAX supplement (Thermo Fisher Scientific, cat. 35050061), 0.1 mg/mL primocin (InvivoGen, cat. ant-pm-2), 10% defined fetal bovine serum, heat inactivated (HyClone Laboratories Inc., cat. SH30070.03HI), 50% L-WRN conditioned media (ATCC, cat. CRL-3276), 1.25 mM N-Acetyl-L-cysteine (Sigma-Aldrich, cat. A9165), 10 mM nicotinamide (Sigma-Aldrich, cat. N0636), 1X B-27 supplement (Thermo Fisher Scientific, cat. 17504044), 1X N-2 supplement (Thermo Fisher Scientific, cat. 17502048), 10 microM Y-27632 dihydrochloride (Tocris Bioscience, cat. 1254), and 50 ng/mL human EGF recombinant protein (Thermo Fisher Scientific, cat. PHG0311). The 485176-168-R4-J1-PDC line was cultured in Panc media, which includes all 6C/Colon 1B media components plus 100 ng/mL human FGF-10 (Thermo Fisher Scientific, cat. 100-26), 500 nM SB-431542 (Selleckchem, cat. S1067), and gastrin (Tocris, cat. 3006).
[…]

[1] = compound alone, run of 04/16/2024
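Note: spheroids exposed to the compounds for one week.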
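Throughout, for viability, T/C: percent of tumor spheroid viability relative to DMSO vehicle control wells.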

Compound	viability, T/C (compound 0.0316 µM)	viability, T/C (compound 0.1 µM)	viability, T/C (compound 0.316 µM)	viability, T/C (compound 1 µM)	viability, T/C (compound 3.16 µM)	viability, T/C (compound 10 µM)	IC50 (curve of compound)	IC50 [1]	IC50 (compound alone, run of 04/22/2024)	viability, T/C (compound 0.000999 µM)	viability, T/C (compound 0.00316 µM)	viability, T/C (compound 0.00999 µM)	viability, T/C (compound 0.0999 µM)
COc1cc(C2c3cc4c(cc3C(OC3OC5COC(C)OC5C(O)C3O)C3COC(=O)C23)OCO4)cc(OC)c1O (centres undefined)	100% and 98.3% and 90.5%	97.9% and 98.6% and 88.2%	87.8% and 77.3% and 74.2%	43.1% and 30.2% and 27.2%	15.4% and 11.7% and 11.3%	9.14% and 7.67% and 7.65%	843 nM and 618 nM and 573 nM	–	–	–	–	–	–
COc1ccc([C@@H](O)c2cc(-c3ncnc4cc(N5CCOCC5)ccc34)c(F)cc2Cl)nn1	110% and 101% and 96%	103% and 106% and 92.4%	101% and 89.6% and 92.7%	97.4% and 79.5% and 91.5%	79.2% and 89.1% and 88.5%	64.3% and 53.6% and 58.4%	> 10000 nM	–	–	–	–	–	–
COc1cccc2c1C(=O)c1c(O)c3c(c(O)c1C2=O)CC(O)(C(=O)CO)CC3OC1CC(N)C(O)C(C)O1 (centres undefined)	87.2% and 85.7% and 88.6%	44.6% and 31.4% and 27.5%	23.1% and 20.1% and 23.4%	5.91% and 6.03% and 8.79%	0.33% and 0.51% and 0.46%	2.28% and 1.5% and 4.09%	88.8 nM and 70.9 nM and 70 nM	–	–	–	–	–	–
COc1ncnc(C2CC2)c1-c1ncc2cnn(Cc3ccc(-c4nc(C(F)(F)F)cn4C(C)C)cc3)c2n1	104% (2×) and 93%	101% and 86% and 90.6%	100% and 59.6% and 104%	94% and 35.3% and 100%	99.2% and 25.8% and 107%	–	–	–	–	–	–	–	–
Cc1[nH]c2ccc(F)cc2c1-c1nc2c3cccnc3c3ncccc3c2[nH]1	99.9% [middle of 12 runs]	101% [middle of 12 runs]	97.9% [middle of 12 runs]	76.9% [middle of 12 runs]	–	3.15% [middle of 12 runs]	–	1.75 µM [middle of 8 runs]	1.54 µM [middle of 4 runs]	–	–	–	–
Cc1[nH]c2ccccc2c1CCNCc1ccc(/C=C/C(=O)NO)cc1	112% and 42% and 57.7%	–	–	–	–	–	–	–	–	108% and 90.8% and 92.3%	93.8% and 86.2% and 86.1%	96.1% and 71.2% and 73.6%	94.9% and 25.6% and 28.9%
Cc1cccc(N(C)C(=O)C2C(O)CCN2c2nc(C)cc(C(F)(F)F)c2C#N)c1 (centres undefined)	104% and 98.3% and 102%	100% and 104% (2×)	91.8% and 93.8% and 104%	97.2% and 103% and 105%	97.8% and 113% and 97.5%	85% and 79.4% and 86.6%	> 10000 nM	–	–	–	–	–	–
Cc1cnc(CNC(=O)c2c(=O)c3ccc(N4CCCN(C)CC4)nc3n3c2sc2ccccc23)cn1	86.1% [middle of 12 runs]	–	28.4% [middle of 12 runs]	26.3% [middle of 12 runs]	27% [middle of 12 runs]	0.17% [middle of 9 runs]	–	166 nM [middle of 12 runs]	–	–	–	–	–
Cn1ncnc1[C@H]1c2n[nH]c(=O)c3cc(F)cc(c23)N[C@@H]1c1ccc(F)cc1	81.4% and 84.2% and 82.3%	–	50.8% and 45.5% and 53.5%	–	–	–	> 316 nM and 246 nM	–	–	100% and 96.8% and 93.9%	93.9% and 87.6% and 102%	80.8% and 90.4% and 90%	75.4% and 66.1% and 67.8%
Nc1ccn(C2OC(CO)C(O)C2(F)F)c(=O)n1 (centres undefined)	14.6% and 8.23% and 13.1%	4.17% and 2.77% and 2.12%	2.96% and 2.39% and 3.6%	3.23% and 3.33% and 3.21%	4.11% and 2.94% and 3.73%	3.17% and 3.4% and 3.47%	< 31.6 nM	–	–	–	–	–	–
O=C(NO)c1cnc(N2CCN(S(=O)(=O)c3ccc4ccccc4c3)CC2)nc1	–	–	3.89% and 20.5% and 27.5%	2.64% and 2.67% and 5.87%	4.12% and 0.29% and 0.35%	3.42% and 1.01% and 0.1%	< 31.6 nM and 121 nM and 187 nM	–	–	–	–	–	–
O=C(c1cc(Cc2n[nH]c(=O)c3ccccc23)ccc1F)N1CCN(C(=O)C2CC2)CC1	99.8% and 85.3% and 97.1%	117% and 107% and 96.9%	112% and 116% and 95.1%	152% and 127% and 126%	144% and 122% (2×)	41.6% and 24.8% and 33%	8900 nM and 7180 nM and 7700 nM	–	–	–	–	–	–
O=c1[nH]cc(F)c(=O)[nH]1	94.2% and 107% and 96.5%	102% and 97.5% and 105%	113% and 107% and 99.3%	123% and 89.3% and 95.8%	71.7% and 58.4% and 66%	52.8% and 55% and 55.4%	> 10000 nM	–	–	–	–	–	–
